Key:
Th17 cells and Treg = assay: Th17 and Treg development from CD4+ T cells; format: cell-based
Protocol: Enriched CD4^+ T cells are plated on 24-well culture dishes that have been precoated 2 hr with 250 μL anti-TCRβ (0.5 μg/mL) plus anti-CD28 (5 μg/mL) at 37° C. in PBS. The cells are then supplemented with media containing BTK inhibitors along with the skewing cytokines as indicated in the following. The Th17 and Treg cultures are grown for 4 days before analysis. The cells are maintained for an additional 3 days with skewing cytokines (Th17; 20 ng/mL IL-6, 0.5 ng/mL TGF-β, 5 μg/mL IL-4, 5 μg/mL IFN-γ and Treg; 0.5 ng/mL TGF-β, 5 μg/mL IL-4, […] IFN-γ) and are supplemented with IL2 as a growth factor.

ID8 ovarian cancer = assay: ID8 syngeneic orthotropic ovarian cancer model; format: in vivo, mice; conditions: 15 mg/kg/BID orally
Excerpt: Human ovarian cancer models, including the ID8 syngeneic orthotropic ovarian cancer model and other animal models, are described in Fong and Kakar, J. Ovarian Res. 2009, 2, 12; Greenaway, et al., Gynecol. Oncol. 2008, 108, 385-94; Urzua, et al., Tumour Biol. 2005, 26, 236-44; Janat-Amsbury, et al., Anticancer Res. 2006, 26, 3223-28; Janat-Amsbury, et al., Anticancer Res. 2006, 26, 2785-89. […] The results of the study are shown in FIG. 4, FIG. 5, FIG. 6, FIG. 7, FIG. 8, FIG. 9, FIG. 10, and FIG. 11.

NK cells (CD56+/CD107a+) = assay: Whole blood NK cell degranulation with obinutuzumab-opsonised MEC-1 cells; format: cell-based, human; conditions: 1 h pretreatment, obinutuzumab 1 μg/mL, 4 h
Protocol: Degranulation in whole blood was performed as follows. […] Exponentially growing cells were used. […] A white blood cell (WBC) count of whole blood was performed. […] The ibrutinib control and two blinded BTK inhibitors were diluted in X-VIVO 15 serum-free hematopoietic cell medium (Lonza Group, Ltd.) to concentrations of 200 μM, 20 M and 2 μM. 170 μL aliquots of unmanipulated whole blood were incubated with 10 μL BTK inhibitors or X-VIVO 15 medium for one hour into a plate. […] The samples were placed in a 5% CO2 incubator for 4 hours at 37° C.
After 4 hours, the samples were mixed gently and 50 μL aliquots were removed from each well and placed in fluorescence-activated cell sorting (FACS) test tubes. A 20 μL aliquot of anti-CD56-APC antibody and anti-CD107a-PE antibody was added. The samples were incubated for 20 minutes at room temperature in the dark. An aliquot of 2 mL of FACS lysing solution (BD Biosceinces) was added. The samples were again incubated for 5 minutes, and then centrifuged at 2000 rpm for 5 minutes. Supernatant was discarded and the cell pellet was resuspended in 500 μL of PBS. The samples were analyzed on the flow cytometer for CD107a^+ NK cells (CD56^+).

CD8+ T cells = assay: CD8+ T cell viability; format: cell-based; conditions: ibrutinib effect at higher doses
Protocol: Total T cells were plated on anti-TCR and anti-CD28 coated wells in the presence of both BTK inhibitors. Neutral culture conditions were used that will not polarize T cells to a helper lineage. […] Statistical significance was calculated using the Mann Whitney T-test.

relapsed/refractory CLL = assay: Clinical study in relapsed/refractory CLL: efficacy; format: in vivo, human; conditions: Kaplan-Meier, p-value 0.0206
Protocol: This study is a multicenter, open-label, nonrandomized, sequential group, dose escalation study. The following dose cohorts will be evaluated:
The investigator rates the subject's response to treatment based on recent guidelines for CLL, as given in Hallek, et al., Blood 2008, 111, 5446-56, and for SLL, as given in Cheson, et al., J. Clin. Oncol. 2007, 25, 579-586.
The analysis of efficacy parameters was performed as follows. The point estimate of the overall response rate will be calculated for the PP analysis set. The corresponding 95% confidence interval also will be derived. The duration of overall response is measured from the time measurement criteria are met for CR or PR (whichever is first recorded) until the first date that recurrent or progressive disease is objectively documented (taking as reference for progressive disease the smallest measurements recorded since the treatment started). […] Progression-free survival is measured from the time of first study drug administration until the first date that recurrent or progressive disease is objectively documented (taking as reference for progressive disease the smallest measurements recorded since the treatment started). […]
The study scheme is a seqential cohort escalation. […] The dose level for Cohort 6 will be determined based on the safety and efficacy of Cohorts 1 to 5, and will not exceed 900 mg/day. […]

[1] = system: human platelet-mediated thrombosis; assay: Laser-induced thrombus formation with human platelets in VWF HA1 mice; conditions: in vivo
Protocol: Injury to the vessel wall of arterioles ([…] diameter) was performed using a pulsed nitrogen dye laser (440 nm, Photonic Instruments) applied through a 20× water-immersion Olympus objective (LUMPlanF1, 0.5 numerical aperature (NA)) of a Zeiss Axiotech vario microscope. […] The extent of thrombus formation was assessed for 2 minutes after injury and the area (μm^2) of coverage determined (Image IQ, Andor Technology).
The BTK inhibitor-treated human platelets were fluorescently labeled and infused continuously through a catheter inserted into the femoral artery.

[2] = system: BCR activation markers CD69 and CD86; assay: In vivo potency: BCR activation markers after gavage; conditions: mice, 3 hours post-dose, IgM stimulation, compared with Formula (10)
Protocol: Mice were gavaged at increasing drug concentration and sacrificed at one time point (3 hours post-dose). BCR is stimulated with IgM and the expression of activation markers CD69 and CD86 are monitored by flow cytometry to determine EC50 values.
CD86 and CD69 are cell surface proteins that are BCR activation markers. […] BCR was stimulated with IgM and the expression of activation marker CD69 and CD86 are monitored by flow cytometry to determine EC50 values.

[3] = In vitro metabolism in hepatocytes with 14C-labeled drug; format: in vitro ADME, and human; conditions: mouse, rat, dog, rabbit, monkey, human hepatocytes
NSCLC (KrasLA2) = assay: KrasLA2 NSCLC genetic tumor model; format: in vivo, mice; conditions: 15 mg/kg
Excerpt: The model is designed to have sporadic expression in single cells of G12D mutant Kras off its own promoter triggered by spontaneous intrachromosomal recombination. Johnson, et al. Nature 2001, 410, 1111-16. While the mutant Kras protein is expressed in a few cells in all tissues, tumor development is seen only in the lung at high penetrance.

[4] = GLP functional observation battery; format: in vivo; conditions: rats, doses through 300 mg/kg
Excerpt: (§1) Formula (2) was well tolerated in standard in vivo Good Laboratory Practices (GLP) studies of pharmacologic safety.

[5] = Cardiovascular function study in awake telemeterized dogs; format: in vivo, male beagle dogs; conditions: single doses through 30 mg/kg
Excerpt: as §1

CD8+ T cell function = assay: Cytotoxic T cell (CTL) assay; format: cell-based; conditions: relative to vehicle; for CD8+ T cell function as % cytotoxicity: 500 nM
Protocol: Without being bound by any theory, CD8^+ T cells have two primary effector functions: (1) produce large amounts of IFN-γ (which activates macrophages), and (2) cytolytic activity. […] The targets were B lymphoblasts from lipopolysaccharide (LPS) treated cultures. The assay was performed by incubating different ratios of effectors:targets for 4 hours.

[6] = system: 80 known pharmacologic targets such as G-protein-coupled receptors, nuclear receptors, proteases, and ion channels; assay: Binding assays with 80 known pharmacologic targets; conditions: screened at 10 μM
Excerpt: as §1

[7] = system: GPVI platelet aggregation; assay: GPVI (convulxin) platelet aggregation; format: cell-based, human
BTK = biological target: T1, BTK (Mus musculus, UniProt P35991); assay: Molecular probe assay of BTK occupancy in MDSCs of tumor bearing PDA mice; format: in vivo; conditions: 15 mg/kg BID, Day 8, 4 hours post dose
T1 construct: endogenous in cells; host or cells: granulocytic and monocytic MDSCs from tumour-bearing PDA (KPC) mice dosed in vivo
T1 sequence (P35991 whole entry): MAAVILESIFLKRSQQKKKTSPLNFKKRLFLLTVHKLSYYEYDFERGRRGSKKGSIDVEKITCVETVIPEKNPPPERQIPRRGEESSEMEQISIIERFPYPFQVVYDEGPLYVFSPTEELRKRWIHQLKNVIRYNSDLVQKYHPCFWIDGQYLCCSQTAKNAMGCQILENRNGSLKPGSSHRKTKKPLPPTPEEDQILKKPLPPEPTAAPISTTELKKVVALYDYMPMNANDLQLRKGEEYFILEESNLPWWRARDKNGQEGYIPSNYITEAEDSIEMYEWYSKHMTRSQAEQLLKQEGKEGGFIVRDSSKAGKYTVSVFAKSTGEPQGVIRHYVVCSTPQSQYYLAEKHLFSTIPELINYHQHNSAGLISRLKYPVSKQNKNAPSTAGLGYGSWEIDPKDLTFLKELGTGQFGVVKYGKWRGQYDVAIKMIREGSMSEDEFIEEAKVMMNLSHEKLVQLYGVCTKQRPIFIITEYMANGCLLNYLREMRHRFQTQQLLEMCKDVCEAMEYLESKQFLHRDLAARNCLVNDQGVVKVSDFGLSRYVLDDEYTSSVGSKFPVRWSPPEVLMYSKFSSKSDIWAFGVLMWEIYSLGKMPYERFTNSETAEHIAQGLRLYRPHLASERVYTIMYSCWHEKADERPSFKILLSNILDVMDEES
Excerpt: A molecular probe assay was used to calculate the percent irreversible occupancy of total BTK.

[8] = monotherapy, dose levels through 840 mg; cited from earlier work
Raji cells = assay: Rituximab ADCC chromium release assay, Raji targets; format: cell-based, human; conditions: 1 μM, healthy donor NK cells
Protocol: All in vitro experiments were performed in triplicate.
ADCC assays were performed as follows. Briefly, target cells (Raji or primary CLL) were labeled by incubation at 37° C. with 100 μCi ^51Cr for 4 hours prior to co-culture with NK cells. Cells were washed, enumerated, and then added in triplicate to prepared 96-well plates containing treated NK cells at an effector:target (E:T) ratio of 25:1. […] Cultures were incubated at 37° C. for 4 hours, and then centrifuged. Supernatants were harvested and ^51Cr release was measured by liquid scintillation counting. All experiments were performed in triplicate.

Compound: CC#CC(=O)N1CCC[C@H]1c1nc(-c2ccc(C(=O)Nc3ccccn3)cc2)c2c(N)nccn12 [Formula (2)]
- effect on T helper 17 (Th17) cells (Th17 cells and Treg): no adverse effect
- effect on regulatory T cell (Treg) development (Th17 cells and Treg): no effect
- CD8+ T cells (ID8 ovarian cancer): increase
- immunosuppressive B cells, including Bregs (ID8 ovarian cancer; tumor-bearing mice): significant reduction
- reduction of obinutuzumab-stimulated NK degranulation (NK cells (CD56+/CD107a+)): minimal effect
- treatment-related adverse event: Headache (Grade 1/2, All (N = 44)): 7 (16) n (%)
- treatment-related adverse event: Diarrhea (Grade 1, All (N = 44)): 4 (9) n (%)
- treatment-related adverse event: Increased tendency to bruise (Grade 1, All (N = 44)): 6 (14) n (%)
- treatment-related adverse event: Petechiae (Grade 1, All (N = 44)): 3 (7) n (%)
- dose-limiting toxicities (DLTs) (relapsed/refractory CLL): No DLTs
- grade of adverse events observed (relapsed/refractory CLL): only grade 1 AEs
- lymphocytosis (relapsed/refractory CLL): lack of lymphocytosis
- treatment-related serious adverse events (SAEs) (relapsed/refractory CLL): No treatment-related serious adverse events
- effect on CD8+ T cell viability (CD8+ T cells): no effect
- progression-free survival versus ibrutinib-treated patients (relapsed/refractory CLL): improvement in survival
- effect on human platelet-mediated thrombus formation [1]: no significant effect
- in vivo potency at inhibiting expression of activation markers CD69 and CD86 [2]: more potent
- metabolites found in hepatocytes [3]: two mono-oxidized metabolites and a glutathione conjugate
- tumor volumes versus vehicle (NSCLC (KrasLA2)): significant decrease
- neurobehavioral effects and body temperature [4]: no adverse effects
- body temperature, cardiovascular and ECG (including QT interval) parameters [5]: no meaningful changes
- CD8+ T cell function as % cytotoxicity (CD8+ T cell function): no effect
- CD8+ T cell function as IFN-γ level (CD8+ T cell function): no effect
- activity in binding assays with 80 pharmacologic targets [6]: significant activity only against the A3 adenosine receptor
- effect on GPVI platelet aggregation [7]: does not
- irreversible BTK occupancy in granulocytic and monocytic MDSCs (BTK): Complete BTK occupancy

Compound: C=CC(=O)N1CCC[C@@H](n2nc(-c3ccc(Oc4ccccc4)cc3)c3c(N)ncnc32)C1 [Formula (10), reference compound]
- effect on T helper 17 (Th17) cells (Th17 cells and Treg): strongly inhibits
- effect on regulatory T cell (Treg) development (Th17 cells and Treg): strongly increases
- effect on CD8+ T cell viability (CD8+ T cells): strongly affects
- maximum tolerated dose [8]: No maximum tolerated dose (MTD) was apparent
- CD8+ T cell function as % cytotoxicity (CD8+ T cell function): affects
- CD8+ T cell function as IFN-γ level (CD8+ T cell function): affects
- effect on GPVI platelet aggregation [7]: significantly inhibits
- effect on antibody-dependent lysis of rituximab-coated Raji cells (Raji cells): strongly inhibited

— patent US20200069668A1, “Therapeutic Combinations of an IRAK4 Inhibitor and a BTK Inhibitor” (Acerta Pharma B.V., priority 2015, published 2020)
